Patent US12082918B2, “Preparation for magnetic resonance diagnostics for oncological diseases, comprising deuterated 2-amino-2-methylpropionic acid and/or 2-(N-methylamino)-2-methylpropionic acid, and diagnostic method using said preparation” (SOLVEX LIMITED LIABILITY COMPANY, priority 2017, dated 2024)

Key:
[1] = tested on: carcinoma of the breast 4T1; experiment: 2H MRI visualisation of 4T1 breast carcinoma in mice in vivo; parameters: species or system mice Balb/c
Experimental: (§1) In the examples below, the MRI scanner Bruker BioSpec BC70/30 USR with the constant field of 7.05 T, equipped with a surface transmitting-and-receiving coil with a diameter of 3 cm and a scan depth of ca. 1 cm was used.
(§2) To register deuterium image the FLASH (Fast low angle shot) pulse sequence was used.
(§3) For experiments with the broadband excitation the following settings were used: the excitation frequency was determined by ^2H NMR spectrum and was sfo1≈46.1745 MHz, a rectangular excitation pulse with a width of 1300 Hz and a power of 36 dB, the flip angle FA=30°, the time TR=11.8 MS, echo time TE=4.4 msec, a scan area of 10 cm×10 cm, scan matrix, 50×50, slice thickness 3 cm, bandwidth of 12500 Hz, total scan time 10 minutes (1030 averages).
For experiments with selective excitation the following settings were used: excitation frequency sfo1=46.1745 MHz, a rectangular excitation pulse with a width of 130 Hz and a power of 48 dB, the flip angle FA=30°, the repetition time TR=25 MS, echo time TE=10 MS, a scanning area of 10 cm×10 cm, scan matrix 50×50, slice thickness 3 cm, bandwidth of 25,000 Hz, total scan time 10 minutes.
In this example, experiments were conducted on mice Balb/c inoculated with carcinoma of the breast 4T1 (injection of 5×10^5 cells/60 μl under the left front paw for 10 days before experiment) and in healthy Balb/c mice.
An animal no. 1-5 weighing 20 g was injected intraperitoneally with a solution of 20 mg of 2-amino-2-(CD3)-3,3,3-D3-propionic acid in 0.5 ml of a saline solution. An animal no. […] weighing 20 g was injected intraperitoneally with a solution of 10 mg (mouse no. 4) or 5 mg (mouse no. 5) 2-amino-2-(CD3)-3,3,3-D3-propionic acid in 0.25 ml of a saline solution. After injection, the animal was kept in a separate cage for a specified time (no. 1 with the tumor and no. 2 without the tumor: 40 min; no. 3 with the tumor: 115 min; no. 4 with the tumor: 20 and 360 min; no. 5 and no. 6 with the tumor: 30 min). To register the MR images and spectra an animal was immobilized with isoflurane. The surface transmitting-and-receiving coil was fixed on the body of the mouse on the dorsal side sequentially in two positions (thoracic, kidneys). The FIGS. 3-7 show ^2H MR images obtained with the use of the broadband excitation of the deuterium nuclei.

[2] = tested on: carcinoma of the breast 4T1; experiment: as above; parameters: species or system mice Balb/c; remark: listed apart in the source
C6 glioma = experiment: 2H MRI visualisation of glioma C6 in rats in vivo; parameters: species or system Wistar rats; conditions: 4 hours after 150 mg i.p.
Experimental: as §1, §2, §3
In this example, experiments were conducted on Wistar rats inoculated with C6 glioma and in healthy Wistar rats.
An animal with the weight of 210 g was injected intraperitoneally a solution of 150 mg of 2-amino-2-(CD3)-3,3,3-D3-propionic acid in 1.5 ml of a saline solution. After injection, the animal was kept in a separate cage with free access to food and water. To register the MR images and spectra an animal was immobilized with isoflurane. The surface transmitting-and-receiving coil was fixed over the head of the rat.

- allowable time range between administration and detection of deuterium ([1]; mice with 4T1 tumor, 20 mg i.p., FIGS. 3, 5, 7 and 8): 20 to 360 min
- signal/noise ratio in the kidneys ([1]; mouse no. 1, 40 min after 20 mg i.p., broadband excitation): approximately 25
- signal/noise ratio in the region of the tumor ([1]; mouse no. 1 with tumor, 40 min after 20 mg i.p., broadband excitation): approximately 6
- signal/noise ratio in the region of the tumor ([1]; mouse no. 1 with tumor, 40 min after 20 mg i.p., selective excitation): about 4
- visibility of excised tumor on deuterium MR image ([1]; tumors excised from mouse no. 3, 150 min after injection of 20 mg): clearly visible on deuterium MR image
- localization of the deuterium signal (2H MRI) (C6 glioma; rats without tumors): does not show a clear localization
Structure (SMILES): [2H]C([2H])([2H])C(N)(C(=O)O)C([2H])([2H])[2H] [2-amino-2-(CD3)-3,3,3-D3-propionic acid]
- localization of the deuterium signal (2H MRI) ([1]; control mouse no. 2 without the tumor, 40 min after 20 mg i.p.): localized in the region corresponding to the liver
- localization of the deuterium signal (2H MRI) ([1]; mouse no. 1 with tumor, 40 min after 20 mg i.p.): localized in the region corresponding to the tumor
- localization of the deuterium signal (2H MRI) ([1]; mouse no. 3 with tumor, 115 min after 20 mg i.p.): localized in the region corresponding to the tumor and in the area corresponding to the liver
- localization of the deuterium signal (2H MRI) ([2]; mouse no. 4 with tumor, 20 min after 20 mg i.p.): localized in the region corresponding to the most recently developed and actively growing parts of the tumor, and also in the area corresponding to the liver
- localization of the deuterium signal (2H MRI) ([2]; mouse no. 4 with tumor, 360 min after 20 mg i.p.): localized in the region corresponding to the most recently developed and actively growing parts of the tumor
- localization of the deuterium signal (2H MRI) ([2]; mouse no. 5 with tumor, 30 min after 10 mg i.p.): localized in the region corresponding to individual parts of the tumor
- localization of the deuterium signal (2H MRI) ([2]; mouse no. 6 with tumor, 30 min after 5 mg i.p.): localized in the region corresponding to individual parts of the tumor
- localization of the deuterium signal (2H MRI) (C6 glioma; rat with C6 glioma): localized in the region corresponding to the tumor
